# Source: publication PMC8297783, “Autocrine signaling by receptor tyrosine kinases in urothelial carcinoma of the bladder” (PLoS ONE, 2021)
# Values joined by “and” are separate entries in the source; they are usually repeats but may differ in a detail not shown here. Equal values may be shown once. Read-outs that look alike come from different tables or passages of the source.
# Experiments:
# MERTK = target: T1, MERTK (Homo sapiens, UniProt Q12866); assay: phospho-MERTK immunoblot of J82 and MDXC1 lysates; assay type: cell-based; conditions: J82 and MDXC1 cells
# T1 construct: endogenous in cells; host or cells: J82 and MDXC1 (J82 xenograft explant)
# T1 sequence (Q12866 21-999): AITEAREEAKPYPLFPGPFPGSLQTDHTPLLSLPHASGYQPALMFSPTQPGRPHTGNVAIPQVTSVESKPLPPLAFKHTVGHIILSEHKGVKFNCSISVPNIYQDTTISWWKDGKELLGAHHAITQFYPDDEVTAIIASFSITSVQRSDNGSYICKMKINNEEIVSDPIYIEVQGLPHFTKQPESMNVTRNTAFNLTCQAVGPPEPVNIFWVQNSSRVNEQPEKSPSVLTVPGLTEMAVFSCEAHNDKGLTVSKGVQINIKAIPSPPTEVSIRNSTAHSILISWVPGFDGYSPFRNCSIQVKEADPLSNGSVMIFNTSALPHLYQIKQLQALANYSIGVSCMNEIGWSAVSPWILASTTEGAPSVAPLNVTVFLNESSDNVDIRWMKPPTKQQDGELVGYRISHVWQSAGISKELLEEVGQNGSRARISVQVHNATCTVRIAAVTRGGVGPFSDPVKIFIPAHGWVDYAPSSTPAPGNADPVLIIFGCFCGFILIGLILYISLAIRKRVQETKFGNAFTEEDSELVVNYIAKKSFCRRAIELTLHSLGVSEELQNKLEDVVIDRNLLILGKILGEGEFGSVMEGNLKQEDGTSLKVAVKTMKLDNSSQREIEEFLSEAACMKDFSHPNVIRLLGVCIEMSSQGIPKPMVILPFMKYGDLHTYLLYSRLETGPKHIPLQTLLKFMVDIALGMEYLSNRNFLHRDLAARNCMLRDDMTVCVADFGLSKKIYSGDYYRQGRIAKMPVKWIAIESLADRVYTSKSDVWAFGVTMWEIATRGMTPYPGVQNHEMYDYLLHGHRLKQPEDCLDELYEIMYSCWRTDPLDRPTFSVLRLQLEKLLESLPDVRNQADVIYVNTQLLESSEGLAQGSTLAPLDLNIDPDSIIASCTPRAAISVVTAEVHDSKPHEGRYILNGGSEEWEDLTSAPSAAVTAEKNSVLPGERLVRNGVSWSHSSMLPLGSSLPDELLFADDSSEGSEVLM
# Description: For SDS-PAGE and immunoblot analysis, cultured cells were washed with cold PBS, extracted in Laemmli sample buffer, sonicated in ice-cold water with 3 cycles of 15 sec sonication followed by 1 min of cooling time. Samples were then heated for 5 min at 95°C prior to SDS-PAGE and electrophoretic transfer to nitrocellulose or PVDF membrane. Membranes were processed as described previously: membranes were blocked with 5% milk in Tris buffered saline, 0.1% Tween 20 (TBST) for 1 h at 25°C before incubating with primary antibody (1:1000 dilution) in TBST-5% milk for 16 h at 4°C. Membranes were then washed 3 times with TBST, incubated with horse radish peroxidase-labeled secondary antibody (1:10,000 dilution) for 1 h at 25°C, and washed for 3 h with TBS prior to ECL detection (Pierce/Thermo Fisher Scientific) according to the manufacturer’s supplied protocol. Imaging and quantitation of ECL light emission was performed using an Azure Biosystems c600 imaging system (Dublin, California USA).
# Fig 8 Serial passage of J82 cell xenografts in mice. (A) Tumor volume (mm^3) of individual J82 (left) or MDXC1 (middle) cell xenografts in mice, or mean (+/- SD) tumor growth of both cell line xenografts (right), vs. days post implantation.
# 5637 cells = assay: cell proliferation assay, 5637 cells; assay type: cell-based, Human; conditions: 1% FBS, 6 d
# PDGFRA = PDGFRA (Homo sapiens, UniProt P16234); assay: cell-free kinase inhibition assay, cabozantinib dose-dependence; assay type: biochemical; conditions: minimum of 3 x 10-dose curves
# CSF1R [1] = target: T2, CSF1R (Homo sapiens, UniProt P07333); assay: as above; assay type: biochemical; conditions: minimum of 3 x 10-dose curves
# T2 sequence (P07333 20-972): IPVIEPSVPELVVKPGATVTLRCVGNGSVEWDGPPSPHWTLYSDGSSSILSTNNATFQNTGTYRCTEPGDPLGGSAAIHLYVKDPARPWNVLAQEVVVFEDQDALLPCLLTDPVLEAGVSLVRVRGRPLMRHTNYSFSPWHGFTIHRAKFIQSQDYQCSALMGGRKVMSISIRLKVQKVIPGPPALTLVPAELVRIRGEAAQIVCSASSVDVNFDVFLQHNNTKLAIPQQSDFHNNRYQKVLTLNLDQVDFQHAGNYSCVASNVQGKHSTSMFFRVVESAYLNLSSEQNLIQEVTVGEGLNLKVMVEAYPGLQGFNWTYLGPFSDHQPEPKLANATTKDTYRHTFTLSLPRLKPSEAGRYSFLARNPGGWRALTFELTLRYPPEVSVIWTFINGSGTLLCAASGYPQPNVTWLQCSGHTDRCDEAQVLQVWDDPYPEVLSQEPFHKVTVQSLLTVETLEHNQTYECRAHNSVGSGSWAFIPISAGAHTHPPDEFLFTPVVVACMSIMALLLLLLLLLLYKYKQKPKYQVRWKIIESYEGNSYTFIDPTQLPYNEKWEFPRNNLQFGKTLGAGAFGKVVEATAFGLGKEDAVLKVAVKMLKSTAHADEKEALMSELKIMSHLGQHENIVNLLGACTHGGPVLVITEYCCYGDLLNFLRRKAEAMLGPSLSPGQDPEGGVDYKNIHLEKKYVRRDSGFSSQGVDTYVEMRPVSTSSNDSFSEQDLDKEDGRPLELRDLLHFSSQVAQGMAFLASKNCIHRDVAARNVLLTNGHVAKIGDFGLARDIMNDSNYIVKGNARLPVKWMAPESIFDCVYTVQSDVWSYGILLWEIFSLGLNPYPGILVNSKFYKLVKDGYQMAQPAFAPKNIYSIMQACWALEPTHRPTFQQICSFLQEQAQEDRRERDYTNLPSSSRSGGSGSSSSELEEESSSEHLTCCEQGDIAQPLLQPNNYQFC
# advanced BCa = conditions: clinical trial of cabozantinib in advanced BCa patients; cited from earlier work
# NTRK1 = NTRK1 (Homo sapiens, UniProt P04629); assay: cell-free kinase inhibition assay, cabozantinib dose-dependence; assay type: biochemical; conditions: minimum of 3 x 10-dose curves
# J82 cells [2] = assay: Transwell cell migration assay, J82 cells; conditions: serum deprived J82 cells, 16 h, 37°C, Gas6 5.7 nM, cabozantinib 300 nM
# FGFR2 = FGFR2 (Homo sapiens, UniProt P21802); assay: cell-free kinase inhibition assay, cabozantinib dose-dependence; assay type: biochemical; conditions: minimum of 3 x 10-dose curves
# DDR1 = DDR1 (Homo sapiens, UniProt Q08345); assay: as above; assay type: biochemical; conditions: minimum of 3 x 10-dose curves
# ROS = ROS (Homo sapiens, UniProt P08922); assay: as above; assay type: biochemical; conditions: minimum of 3 x 10-dose curves
# Chain of ROS (P08922 28-2347): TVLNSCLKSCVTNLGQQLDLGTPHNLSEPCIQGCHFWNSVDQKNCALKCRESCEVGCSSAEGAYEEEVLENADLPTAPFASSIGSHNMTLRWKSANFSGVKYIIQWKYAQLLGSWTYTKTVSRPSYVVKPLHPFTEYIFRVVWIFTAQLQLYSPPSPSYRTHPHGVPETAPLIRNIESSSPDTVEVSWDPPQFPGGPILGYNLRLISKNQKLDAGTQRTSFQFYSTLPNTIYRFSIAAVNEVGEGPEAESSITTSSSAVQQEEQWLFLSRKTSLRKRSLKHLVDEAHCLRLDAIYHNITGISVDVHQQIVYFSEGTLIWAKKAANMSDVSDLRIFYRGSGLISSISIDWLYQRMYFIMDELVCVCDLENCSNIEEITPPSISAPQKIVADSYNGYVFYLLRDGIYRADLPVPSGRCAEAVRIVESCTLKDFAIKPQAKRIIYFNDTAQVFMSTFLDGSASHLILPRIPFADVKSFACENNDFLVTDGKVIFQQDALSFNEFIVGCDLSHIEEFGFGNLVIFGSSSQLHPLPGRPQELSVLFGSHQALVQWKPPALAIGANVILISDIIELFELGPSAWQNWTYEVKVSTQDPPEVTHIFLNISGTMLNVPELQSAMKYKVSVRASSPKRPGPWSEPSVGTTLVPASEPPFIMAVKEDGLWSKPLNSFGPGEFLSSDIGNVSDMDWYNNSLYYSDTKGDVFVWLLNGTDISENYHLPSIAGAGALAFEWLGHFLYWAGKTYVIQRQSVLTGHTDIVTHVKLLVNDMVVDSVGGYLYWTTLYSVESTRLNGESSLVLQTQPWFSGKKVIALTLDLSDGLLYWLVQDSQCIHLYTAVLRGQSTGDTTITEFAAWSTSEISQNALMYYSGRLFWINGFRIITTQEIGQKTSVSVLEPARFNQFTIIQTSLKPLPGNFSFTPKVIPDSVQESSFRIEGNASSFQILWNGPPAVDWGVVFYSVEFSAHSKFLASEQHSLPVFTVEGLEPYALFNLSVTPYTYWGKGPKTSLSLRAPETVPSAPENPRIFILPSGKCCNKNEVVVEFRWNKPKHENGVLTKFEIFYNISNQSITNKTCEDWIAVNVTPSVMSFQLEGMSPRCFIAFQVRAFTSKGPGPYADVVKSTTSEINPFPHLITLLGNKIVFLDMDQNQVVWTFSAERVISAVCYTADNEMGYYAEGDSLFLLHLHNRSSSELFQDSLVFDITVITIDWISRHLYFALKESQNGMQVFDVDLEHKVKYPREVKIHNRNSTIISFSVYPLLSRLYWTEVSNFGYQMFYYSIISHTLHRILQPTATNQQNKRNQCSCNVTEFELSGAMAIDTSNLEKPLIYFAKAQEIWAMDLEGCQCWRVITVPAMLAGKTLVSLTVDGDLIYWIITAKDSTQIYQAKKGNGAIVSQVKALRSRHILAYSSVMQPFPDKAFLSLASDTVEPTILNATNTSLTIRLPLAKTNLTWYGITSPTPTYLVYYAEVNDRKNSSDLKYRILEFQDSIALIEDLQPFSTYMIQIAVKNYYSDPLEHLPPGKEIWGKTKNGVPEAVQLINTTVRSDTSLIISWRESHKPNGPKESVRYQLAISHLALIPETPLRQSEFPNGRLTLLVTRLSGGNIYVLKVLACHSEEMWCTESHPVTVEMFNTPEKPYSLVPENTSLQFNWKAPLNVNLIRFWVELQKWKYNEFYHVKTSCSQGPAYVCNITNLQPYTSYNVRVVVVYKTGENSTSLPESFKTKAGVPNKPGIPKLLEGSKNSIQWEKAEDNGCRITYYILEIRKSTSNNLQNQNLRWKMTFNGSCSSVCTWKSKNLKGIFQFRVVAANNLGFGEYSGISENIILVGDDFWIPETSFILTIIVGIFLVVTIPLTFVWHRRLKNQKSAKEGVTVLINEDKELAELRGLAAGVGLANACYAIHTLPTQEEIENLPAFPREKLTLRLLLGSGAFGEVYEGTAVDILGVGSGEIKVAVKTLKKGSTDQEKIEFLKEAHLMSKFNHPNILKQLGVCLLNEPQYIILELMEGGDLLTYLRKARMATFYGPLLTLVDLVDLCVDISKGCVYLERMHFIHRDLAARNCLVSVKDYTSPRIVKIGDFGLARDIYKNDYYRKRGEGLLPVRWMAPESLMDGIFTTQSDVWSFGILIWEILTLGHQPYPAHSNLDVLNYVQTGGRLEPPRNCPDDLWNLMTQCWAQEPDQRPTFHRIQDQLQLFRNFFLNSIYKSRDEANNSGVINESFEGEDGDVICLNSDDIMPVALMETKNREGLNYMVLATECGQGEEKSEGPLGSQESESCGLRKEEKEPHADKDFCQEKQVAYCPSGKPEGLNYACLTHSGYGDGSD
# CSF1R [3] = target: T2, CSF1R; set-up: method as in PMID 30075184; conditions: intact cells; cited from earlier work
# FL3 cells [4] = assay: anchorage independent growth assay, FL3 cells; conditions: 1% FBS, cabozantinib 300 nM, with or without MST1 5 nM or CSF1 10 nM
# FL3 cells [5] = assay: Transwell cell migration assay, FL3 cells; conditions: serum deprived FL3 cells, 16 h, 37°C, cabozantinib 300 nM
# FL3 cells [6] = assay: cell proliferation assay, FL3 cells; assay type: cell-based, Human; conditions: 1% FBS, 6 d
# FGFR3 = FGFR3 (Homo sapiens, UniProt P22607); assay: cell-free kinase inhibition assay, cabozantinib dose-dependence; assay type: biochemical
# TEK = conditions: in vitro; read-out: IC50, TEK inhibition in vitro; cited from earlier work
# TYRO3 = TYRO3 (Homo sapiens, UniProt Q06418); assay: cell-free kinase inhibition assay, cabozantinib dose-dependence; assay type: biochemical; conditions: minimum of 3 x 10-dose curves
# Chain of TYRO3 (Q06418 41-890): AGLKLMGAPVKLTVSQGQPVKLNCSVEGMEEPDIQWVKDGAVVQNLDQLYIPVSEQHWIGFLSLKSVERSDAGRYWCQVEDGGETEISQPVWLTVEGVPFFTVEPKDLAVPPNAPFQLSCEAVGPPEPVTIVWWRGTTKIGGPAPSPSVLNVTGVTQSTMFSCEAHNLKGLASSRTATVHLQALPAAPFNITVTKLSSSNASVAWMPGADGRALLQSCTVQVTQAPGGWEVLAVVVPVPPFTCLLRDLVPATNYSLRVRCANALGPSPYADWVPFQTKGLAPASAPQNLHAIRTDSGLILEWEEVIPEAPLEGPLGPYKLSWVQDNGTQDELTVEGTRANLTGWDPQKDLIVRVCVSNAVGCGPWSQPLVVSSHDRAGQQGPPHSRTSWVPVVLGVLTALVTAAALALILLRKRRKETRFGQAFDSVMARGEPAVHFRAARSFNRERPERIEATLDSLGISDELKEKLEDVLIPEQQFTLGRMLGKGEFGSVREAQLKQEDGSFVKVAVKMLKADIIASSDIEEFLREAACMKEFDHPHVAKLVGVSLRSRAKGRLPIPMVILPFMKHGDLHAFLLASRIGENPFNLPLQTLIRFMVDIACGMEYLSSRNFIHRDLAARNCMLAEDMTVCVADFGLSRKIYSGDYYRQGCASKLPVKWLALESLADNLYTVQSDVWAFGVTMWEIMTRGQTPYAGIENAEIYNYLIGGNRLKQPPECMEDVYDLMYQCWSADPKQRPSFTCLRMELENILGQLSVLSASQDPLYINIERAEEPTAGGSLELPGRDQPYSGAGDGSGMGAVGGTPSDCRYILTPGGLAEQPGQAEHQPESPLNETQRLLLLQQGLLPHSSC
# FGFR1 = FGFR1 (Homo sapiens, UniProt P11362); assay: as above; assay type: biochemical
# J82 cells [7] = assay: anchorage independent growth assay, J82 cells; conditions: 1% FBS, cabozantinib 300 nM, with or without Gas6 5.7 nM
# ALK = ALK (Homo sapiens, UniProt Q9UM73); assay: cell-free kinase inhibition assay, cabozantinib dose-dependence
# Erk [8] = assay: Erk kinase activation (pErk/tErk) in FL3 cells, MST1R and CSF1R pathways; assay type: cell-based, Human; conditions: MST1 or CSF1, cabozantinib
# Axl = target: T3, Axl (Homo sapiens, UniProt P30530); assay: Axl kinase activation (pAxl/tAxl) by 2-site immunoassay in J82 cells; assay type: cell-based; conditions: serum-deprived J82 cells, Gas6 5.7 nM 1 h at 37°C, added cabozantinib 300 nM, relative to untreated cells
# T3 construct: endogenous in cells; host or cells: J82 (ATCC HTB-1)
# J82 cells [9] = assay: cell proliferation assay, J82 cells; assay type: cell-based, Human; conditions: 1% FBS, 6 d
# FGFR4 = FGFR4 (Homo sapiens, UniProt P22455); assay: cell-free kinase inhibition assay, cabozantinib dose-dependence; assay type: biochemical
# NTRK3 = NTRK3 (Homo sapiens, UniProt Q16288); assay: as above; assay type: biochemical; conditions: minimum of 3 x 10-dose curves
# Akt [10] = assay: Akt kinase activation (pAkt/tAkt) in FL3 cells, MST1R and CSF1R pathways; assay type: cell-based, Human; conditions: serum-deprived FL3 cells, MST1 (5 nM) or CSF1 (10 nM), cabozantinib 300 nM
# DDR2 = DDR2 (Homo sapiens, UniProt Q16832); assay: cell-free kinase inhibition assay, cabozantinib dose-dependence; assay type: biochemical; conditions: minimum of 3 x 10-dose curves
# IGF1R = IGF1R (Homo sapiens, UniProt P08069); assay: as above; assay type: biochemical
# FLT4 = FLT4 (Homo sapiens, UniProt P35916); assay: as above; assay type: biochemical; conditions: minimum of 3 x 10-dose curves
# NTRK2 = NTRK2 (Homo sapiens, UniProt Q16620); assay: as above; assay type: biochemical
# Chain of NTRK2 (Q16620 32-822): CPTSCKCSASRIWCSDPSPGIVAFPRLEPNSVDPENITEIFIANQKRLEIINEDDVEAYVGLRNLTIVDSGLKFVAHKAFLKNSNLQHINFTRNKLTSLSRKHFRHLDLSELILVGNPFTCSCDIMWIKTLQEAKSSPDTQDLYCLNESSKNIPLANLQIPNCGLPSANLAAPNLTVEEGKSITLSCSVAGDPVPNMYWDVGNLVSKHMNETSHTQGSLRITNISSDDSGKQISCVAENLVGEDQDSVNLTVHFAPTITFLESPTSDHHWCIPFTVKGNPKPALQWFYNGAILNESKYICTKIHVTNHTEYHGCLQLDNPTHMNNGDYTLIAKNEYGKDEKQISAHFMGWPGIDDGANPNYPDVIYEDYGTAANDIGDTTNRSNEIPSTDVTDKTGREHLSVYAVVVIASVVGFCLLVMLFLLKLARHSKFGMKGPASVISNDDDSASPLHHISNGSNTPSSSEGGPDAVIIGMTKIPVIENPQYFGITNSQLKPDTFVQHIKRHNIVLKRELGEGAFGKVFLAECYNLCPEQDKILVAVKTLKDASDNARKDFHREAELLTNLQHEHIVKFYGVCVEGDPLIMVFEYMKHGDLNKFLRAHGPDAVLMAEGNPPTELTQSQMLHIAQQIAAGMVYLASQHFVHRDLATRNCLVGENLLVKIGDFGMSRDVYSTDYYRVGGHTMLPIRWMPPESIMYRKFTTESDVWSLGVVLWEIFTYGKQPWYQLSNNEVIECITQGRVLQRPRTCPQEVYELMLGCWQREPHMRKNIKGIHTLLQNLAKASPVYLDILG
# MUSK = MUSK (Homo sapiens, UniProt O15146); assay: as above; assay type: biochemical
# Erk [11] = assay: Erk kinase activation (pErk/tErk) by 2-site immunoassay in J82 cells; assay type: cell-based, Human; conditions: serum-deprived J82 cells
# Akt [12] = assay: Akt kinase activation (pAkt/tAkt) by 2-site immunoassay in J82 cells; assay type: cell-based, Human; conditions: serum-deprived J82 cells
# [13] = cabozantinib 300 nM, in the presence or absence of added Gas6 (5.7 nM)
# [14] = Gas6 5.7 nM 1 h, cabozantinib 300 nM
# [15] = exogenous Gas6 5.7 nM, 1 h at 37°C
compound,measurement,setting,value
CN1CCN(Cc2ccc(Nc3ncc(Cl)c(Nc4ccccc4S(=O)(=O)N(C)C)n3)cc2)CC1 [TP0903],phospho-MERTK content,MERTK; TP0903 300 nM,reduced phospho-MERTK content below that of untreated serum-deprived cells
COc1cc2nccc(Oc3ccc(NC(=O)C4(C(=O)Nc5ccc(F)cc5)CC4)cc3)c2cc1OC [cabozantinib],proliferation,5637 cells; [13],significantly inhibited proliferation by these lines below the rate of untreated cells
same,IC50,PDGFRA,414 nM
same,IC50,CSF1R [1],14 nM
same,overall response rate,advanced BCa,33%
same,IC50,NTRK1,11 nM
same,Gas6-induced migration,J82 cells [2],repressed
same,IC50,FGFR2,> 3000 nM
same,IC50,DDR1,< 150 nM
same,IC50,ROS,43 nM and < 50 nM
same,inhibition of CSF1R activation,CSF1R [3],complete inhibition
same,anchorage independent growth,FL3 cells [4],inhibited
same,CSF1-induced migration,FL3 cells [5]; CSF1 10 nM,repressed
same,MST1-induced migration,FL3 cells [5]; MST1 5 nM,repressed
same,proliferation,FL3 cells [6]; both cabozantinib 300 nM and MST1 5 nM,"reduced FL3 proliferation to the control cell growth rate, but not below"
same,proliferation rate,"FL3 cells [6]; cabozantinib alone 300 nM, relative to untreated cells",significantly reduced proliferation rate
same,IC50,FGFR3,> 3000 nM
same,IC50,TEK,14 nM
same,IC50,TYRO3,< 50 nM and 3 nM
same,IC50,FGFR1,> 3000 nM
same,anchorage independent growth,J82 cells [7],inhibited
same,IC50,ALK,> 3000 nM
same,Erk kinase activation (pErk/tErk),Erk [8],suppressed significantly below baseline
same,Axl kinase activation (pAxl/tAxl),Axl,suppressed significantly below control levels
same,proliferation,J82 cells [9]; [13],significantly inhibited proliferation by these lines below the rate of untreated cells
same,IC50,FGFR4,> 3000 nM
same,IC50,NTRK3,< 150 nM
same,Akt kinase activation (pAkt/tAkt),Akt [10],suppressed significantly below baseline
same,IC50,DDR2,< 150 nM
same,IC50,IGF1R,> 3000 nM
same,IC50,FLT4,24 nM and < 50 nM
same,IC50,NTRK2,< 50 nM
same,IC50,"NTRK2; IC50 (NTRK2), cell-free assay, minimum of 3 x 10-dose curves",15 nM
same,IC50,MUSK,> 3000 nM
same,Erk kinase activation (pErk/tErk),Erk [11]; [14],suppression below baseline
same,Akt kinase activation (pAkt/tAkt),Akt [12]; [14],suppression below baseline
"Gas6: exogenous ligand of AXL (also activates MERTK), added to cells at 5.7 nM",proliferation rate,5637 cells; exogenously added Gas6 5.7 nM,significantly increased
same,proliferation rate,J82 cells [9]; exogenously added Gas6 5.7 nM,significantly increased
same,MERTK autophosphorylation,MERTK; exogenous Gas6 5.7 nM,stimulated robust MERTK autophosphorylation
same,Erk kinase activation (pErk/tErk),Erk [11]; [15],significant exogenous Gas6-induced activation
same,Akt kinase activation (pAkt/tAkt),Akt [12]; [15],significant exogenous Gas6-induced activation
